Data taken from paper PMC11374953, “Heteroaryl derivatives of suvorexant as OX1R selective PET ligand candidates: Cu-mediated ^18F-fluorination of boroxines, in vitro and initial in vivo evaluation” (EJNMMI Research, 2024).
Values joined by “and” are separate entries in the source; they are usually repeats but may differ in a detail not shown here. Identical values can stand only once. “Also recorded” adds a separate entry of the source.

Columns and labels:
human OX1R = biological target: T1, human OX1R (Homo sapiens, UniProt O43613); experiment: Radioligand displacement binding, human OX1R (HEK293T membranes); details: for OX1R selectivity Ki(hOX2R)/Ki(hOX1R): Ki for OX2R divided by Ki for OX1R; for Ki: mean ± SEM, at least three experiments in triplicate, HEK293T membranes, radioligand [^3H]SB974042, read-out: Ki values (nM ± SEM) hOX1R
T1 construct: host or cells: HEK293T
T1 sequence (O43613 1-425): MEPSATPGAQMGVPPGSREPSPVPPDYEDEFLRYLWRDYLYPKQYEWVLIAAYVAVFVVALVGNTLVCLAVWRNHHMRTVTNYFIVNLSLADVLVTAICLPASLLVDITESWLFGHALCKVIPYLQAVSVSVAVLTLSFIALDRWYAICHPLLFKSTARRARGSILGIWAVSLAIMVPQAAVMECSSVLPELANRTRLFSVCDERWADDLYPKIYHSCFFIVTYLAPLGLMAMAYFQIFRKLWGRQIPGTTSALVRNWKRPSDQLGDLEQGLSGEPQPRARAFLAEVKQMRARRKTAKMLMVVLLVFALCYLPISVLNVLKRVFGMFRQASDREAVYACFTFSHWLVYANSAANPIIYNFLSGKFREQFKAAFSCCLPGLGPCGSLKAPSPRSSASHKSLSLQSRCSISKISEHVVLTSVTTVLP
Description: (§1) In comparison with the lead JH112, receptor binding affinities of the test compounds 1a–f have been determined by radioligand displacement studies, as described previously, applying membranes of HEK293T cells transiently expressing the human OX1R or OX2R (Table 1).
Binding affinities to the human orexin receptor subtypes OX1R and OX2R were determined as reported. Membranes were prepared from HEK293T cells transiently transfected with the cDNA for the receptor (OX1R: human HCRTR1 from cDNA Resource Center, Bloomsburg University, Bloomsberg, PA; OX2R: human HCRTR2 from Genscript, Piscataway, NJ). […] Competition binding experiments were conducted in binding buffer (50 mM Tris, 5 mM MgCl2, 0.1 mM EDTA, 5 µg/mL bacitracin and 5 µg/mL soybean trypsin inhibitor at pH 7.4) at final protein concentrations of 4 µg/well (OX1R) and 3 µg/well ([…]) or the OX2R radioligand [^3H]EMPA (specific activity: 84 Ci/mmol) both at a final concentration of 0.7 nM (both purchased from Novandi, Södertälje, Sweden) and varying concentrations of the competing test compounds. Radioactivity was separated by filtration on GF/B glass fiber mats and counted with a scintillation counter (Microbeta from PerkinElmer, Rodgau, Germany). […] The protein concentration was determined applying the method of Lowry. Competition curves were analyzed by nonlinear regression using the algorithms implemented in PRISM 10.2 (GraphPad Software, San Diego, CA) to get IC50 values, which were subsequently transformed into the Ki values employing the equation of Cheng and Prusoff.

human OX2R = biological target: T2, human OX2R (Homo sapiens, UniProt O43614); experiment: Radioligand displacement binding, human OX2R (HEK293T membranes); details: mean ± SEM, at least three experiments in triplicate; HEK293T homogenates, radioligand [^3H]EMPA; read-out: Ki values (nM ± SEM) hOX2R
T2 construct: host or cells: HEK293T
T2 sequence (O43614 1-444): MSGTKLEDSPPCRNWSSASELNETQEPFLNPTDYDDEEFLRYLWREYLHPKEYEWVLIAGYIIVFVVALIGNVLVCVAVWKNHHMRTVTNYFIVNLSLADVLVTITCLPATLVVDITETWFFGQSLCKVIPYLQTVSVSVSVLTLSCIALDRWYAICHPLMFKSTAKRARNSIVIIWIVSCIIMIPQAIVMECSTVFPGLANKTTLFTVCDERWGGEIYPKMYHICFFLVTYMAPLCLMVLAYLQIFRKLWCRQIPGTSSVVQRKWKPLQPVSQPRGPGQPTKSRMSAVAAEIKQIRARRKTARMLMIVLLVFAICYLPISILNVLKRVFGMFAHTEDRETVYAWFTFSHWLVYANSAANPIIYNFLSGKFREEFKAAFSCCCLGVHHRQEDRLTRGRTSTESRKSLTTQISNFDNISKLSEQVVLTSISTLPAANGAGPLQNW
Description: as §1
Binding affinities to the human orexin receptor subtypes OX1R and OX2R were determined as reported. Membranes were prepared from HEK293T cells transiently transfected with the cDNA for the receptor (OX1R: human HCRTR1 from cDNA Resource Center, Bloomsburg University, Bloomsberg, PA; OX2R: human HCRTR2 from Genscript, Piscataway, NJ). […] Competition binding experiments were conducted in binding buffer (50 mM Tris, 5 mM MgCl2, 0.1 mM EDTA, 5 µg/mL bacitracin and 5 µg/mL soybean trypsin inhibitor at pH 7.4) at final protein concentrations of 4 µg/well (OX1R) and 3 µg/well (OX2R) when incubating the OX1R specific radioligand [^3H]SB674042 (specific activity: 43 Ci/mmol) or the OX2R radioligand [^3H]EMPA (specific activity: 84 Ci/mmol) both at a final concentration of 0.7 nM (both purchased from Novandi, Södertälje, Sweden) and varying concentrations of the competing test compounds. Radioactivity was separated by filtration on GF/B glass fiber mats and counted with a scintillation counter (Microbeta from PerkinElmer, Rodgau, Germany). Non-specific binding was determined with 10 µM of SB674042 or EMPA. The protein concentration was determined applying the method of Lowry. Competition curves were analyzed by nonlinear regression using the algorithms implemented in PRISM 10.2 (GraphPad Software, San Diego, CA) to get IC50 values, which were subsequently transformed into the Ki values employing the equation of Cheng and Prusoff.

P-gp = P-gp (Homo sapiens, UniProt P08183); experiment: Basolateral-to-apical transport in Caco-2 monolayers with and without the P-gp inhibitor zosuquidar; details: for effect of P-gp inhibitor zosuquidar (ZSQ) on basolateral-to-apical transport / passive permeability (transcellular passive diffusion): Caco-2 monolayers, 4 h; for effect of P-gp inhibitor zosuquidar (ZSQ) on basolateral-to-apical transport: 5 µM compound, 1 µM ZSQ, n = 8; for passive permeability (transcellular passive diffusion): 5 µM, compared with digoxin; for P-gp substrate assessment: Caco-2 monolayer model with zosuquidar
Chain of P-gp (P08183 whole entry, the tested form may be a part): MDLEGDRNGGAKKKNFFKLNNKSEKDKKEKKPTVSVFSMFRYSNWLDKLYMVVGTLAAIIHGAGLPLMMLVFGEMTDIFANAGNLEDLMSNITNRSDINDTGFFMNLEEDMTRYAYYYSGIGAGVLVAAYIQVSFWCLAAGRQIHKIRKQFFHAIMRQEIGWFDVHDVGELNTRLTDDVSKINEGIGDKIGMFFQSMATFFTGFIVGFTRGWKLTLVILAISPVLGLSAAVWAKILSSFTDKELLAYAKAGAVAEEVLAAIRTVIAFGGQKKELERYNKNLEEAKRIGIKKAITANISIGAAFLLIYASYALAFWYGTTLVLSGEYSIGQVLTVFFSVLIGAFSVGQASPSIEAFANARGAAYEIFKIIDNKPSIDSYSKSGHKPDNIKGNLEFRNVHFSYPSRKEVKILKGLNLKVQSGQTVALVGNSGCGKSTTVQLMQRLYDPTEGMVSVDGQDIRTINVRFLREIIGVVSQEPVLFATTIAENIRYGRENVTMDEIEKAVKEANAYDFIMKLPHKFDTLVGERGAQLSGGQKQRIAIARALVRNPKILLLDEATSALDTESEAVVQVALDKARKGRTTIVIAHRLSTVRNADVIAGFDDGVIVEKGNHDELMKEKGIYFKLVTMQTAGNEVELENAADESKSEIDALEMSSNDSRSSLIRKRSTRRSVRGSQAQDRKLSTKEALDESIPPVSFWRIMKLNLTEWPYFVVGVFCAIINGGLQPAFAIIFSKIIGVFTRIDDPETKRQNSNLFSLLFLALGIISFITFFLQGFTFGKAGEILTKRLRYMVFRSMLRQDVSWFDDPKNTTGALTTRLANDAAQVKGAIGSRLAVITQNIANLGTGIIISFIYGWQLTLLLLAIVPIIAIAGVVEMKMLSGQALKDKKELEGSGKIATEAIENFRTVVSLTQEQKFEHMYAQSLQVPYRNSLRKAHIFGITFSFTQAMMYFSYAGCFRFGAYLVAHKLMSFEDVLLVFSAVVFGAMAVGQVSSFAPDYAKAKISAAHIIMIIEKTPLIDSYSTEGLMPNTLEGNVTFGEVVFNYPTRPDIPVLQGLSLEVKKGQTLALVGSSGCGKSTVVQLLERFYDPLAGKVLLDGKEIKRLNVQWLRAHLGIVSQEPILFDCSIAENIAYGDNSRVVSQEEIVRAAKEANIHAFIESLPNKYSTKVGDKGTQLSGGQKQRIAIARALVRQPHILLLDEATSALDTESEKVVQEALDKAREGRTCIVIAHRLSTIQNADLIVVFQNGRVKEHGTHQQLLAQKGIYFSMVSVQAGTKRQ
Description: Amounts being present after 4 h in the apical compartment are shown in % of the amount administered to the basal side.
In order to characterize compounds as substrates of P-gp, monolayers of Caco-2 cells were used in line with previous studies [53]. In brief, transport from the basolateral to apical compartment was determined after 4 h in the absence or presence of the P-gp inhibitor zosuquidar (Biomol GmbH, Hamburg, Germany). […] Zosuquidar was administered in a concentration of 1 µM to the basal and apical compartments. Results are expressed in % of the amount administered to the basolateral compartment at the beginning of the experiment. The P-gp substrate digoxin (obtained in tritium-labeled form from ARC, St. Louis, USA and in unlabeled form from Merck KGaA, Darmstadt, Germany) was used as positive control. Monolayer integrity was checked routinely using tritium-labeled inulin (obtained from ARC, St. Louis, USA). […] LC–MS analyses were performed using an ultra-high-performance liquid chromatography (UPLC) (Ultimate 3000, Thermo Fisher Scientific) coupled to a high-resolution mass spectrometer (QExactive Orbitrap Focus, Thermo Fisher Scientific). The analytical column was an Acquity UPLC BEH C18, 1.7 µm, 2.1 × 100 mm column (Waters GmbH) and 80% methanol with 0.1% formic acid was used as mobile phase during an isocratic elution for 5 min at a flow rate of 0.35 mL/min. For sample preparation, 200 µL cell culture supernatant were mixed with 600 µL methanol including 50 ng/mL clopidogrel-d3 as an internal standard. Samples were centrifuged, the solvent of 600 µL supernatant was evaporated to dryness and 100 µL mobile phase was used for reconstitution. The injection volume was 5 µL. All experiments were performed with eight biological replicates. Unpaired t-test was used for analyzing differences with p-values < 0.05 considered significant.

Structure (SMILES)	OX1R selectivity Ki(hOX2R)/Ki(hOX1R) (human OX1R)	Ki (human OX1R)	Ki (human OX2R)	effect of P-gp inhibitor zosuquidar (ZSQ) on basolateral-to-apical transport (P-gp)	passive permeability (transcellular passive diffusion) (P-gp)	P-gp substrate assessment (P-gp)	decrease of OX1R affinity compared to JH112 (factor) (human OX1R; fluorine for chlorine replacement)
Cc1ccc(-n2nccn2)c(C(=O)N2CCCN(c3nc4cc(F)ccc4o3)CC2)c1 [1a]	1.0	2.5 ± 0.62 nM	2.5 ± 0.36 nM	–	–	–	–
Cc1ccc(-n2nccn2)c(C(=O)N2CCCN(c3nc4cc(F)ccc4s3)CC2)c1 [1b]	1.3	1.9 ± 0.42 nM	2.4 ± 0.49 nM	did not significantly reduce	greater than that of digoxin	–	–
Cc1ccc(-n2nccn2)c(C(=O)N2CCCN(c3nc4ccc(F)cc4s3)CC2)c1 [1c]	1.2	0.99 ± 0.25 nM	1.2 ± 0.2 nM	only moderately inhibited; also recorded: very modest, yet significant, effect	greater than that of digoxin	not efficient P-gp substrates	–
Cc1ccc(-n2nccn2)c(C(=O)N2CCCN(c3cnc4cc(F)ccc4n3)CC2)c1 [1d]	0.7	1.2 ± 0.4 nM	0.8 nM and 0.83 nM	did not significantly reduce	greater than that of digoxin	–	–
CC[C@H](C)[C@H]1CN(c2nc3cc(F)ccc3o2)CCCN1C(=O)c1cc(C)ccc1-n1nccn1 [1e]	77	1.2 ± 0.28 nM	92 ± 14 nM	–	–	–	1.6
CC[C@H](C)[C@H]1CN(c2nc3ccc(F)cc3s2)CCCN1C(=O)c1cc(C)ccc1-n1nccn1 [1f]	77	0.69 ± 0.26 nM	53 ± 7.8 nM	no effect; also recorded: did not significantly reduce	similarly high as with digoxin	not efficient P-gp substrates	–
